# Data published in PubChem BioAssay (NCI).
#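 All cell lines were grown in 96-well plates and treated with compound for 48 hours. At the GI50, growth is halved. TGI denotes the concentration required for complete inhibition of growth.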
# What was measured:
# Assay in all cases: NCI tumour cell line growth inhibition, 48 h
# [1] = system: MDA-MB-435
# [2] = system: OVCAR-4 ovarian
# [3] = system: 786-0 renal
# [4] = system: RPMI-8226 leukemia
# [5] = system: BT-549 breast
# [6] = system: MALME-3M melanoma
# [7] = system: SK-MEL-5 melanoma
# [8] = system: OVCAR-8 ovarian
# [9] = system: SR leukemia
# [10] = system: EKVX NSCLC
# [11] = system: OVCAR-5 ovarian
# [12] = system: HCT-116 colon
# [13] = system: UACC-257 melanoma
# [14] = system: SNB-75 CNS
# [15] = system: HL-60(TB) leukemia
# [16] = system: HCC-2998 colon
# [17] = system: A549 NSCLC
# [18] = system: DU-145 prostate
# [19] = system: TK-10 renal
# [20] = system: HT29 colon
# [21] = system: T-47D breast
# [22] = system: SK-MEL-28 melanoma
# [23] = system: KM12 colon
# [24] = system: ACHN renal
# [25] = system: NCI-H226 lung
# [26] = system: SK-MEL-2 melanoma
# [27] = system: UACC-62 melanoma
# [28] = system: SF-295 CNS
# [29] = system: NCI-H460 lung
# [30] = system: HS 578T breast
# [31] = system: MDA-MB-468 breast
# [32] = system: IGROV1 ovarian
# [33] = system: UO-31 renal
# [34] = system: SF-268 CNS
# [35] = system: COLO 205 colon
# [36] = system: U251 CNS
# [37] = system: MDA-MB-231 breast
# [38] = system: MOLT-4 leukemia
# [39] = system: M14 melanoma
# [40] = system: CAKI-1 renal
# [41] = system: SW-620 colon
# [42] = system: K-562 leukemia
# [43] = system: HOP-92 NSCLC
# [44] = system: A498 renal
# [45] = system: HCT-15 colon
# [46] = system: MCF7 breast
# [47] = system: OVCAR-3 ovarian
# [48] = system: CCRF-CEM leukemia
# [49] = system: NCI/ADR-RES ovarian
# [50] = system: PC-3 prostate
# [51] = system: SN12C renal
# [52] = system: SF-539 CNS
# [53] = system: NCI-H522 lung
# [54] = system: SK-OV-3 ovarian
# [55] = system: HOP-62 NSCLC
# [56] = system: SNB-19 CNS
# [57] = system: LOX IMVI melanoma
# [58] = system: NCI-H23 lung
# [59] = system: RXF 393 renal
compound,measurement,setting,value
COc1cc(/C=C/C(=O)c2ccc(C)cc2)ccc1Oc1nc(Nc2ccc(F)cc2)nc(N(C)C)n1,GI50,[1],11.4 µM
same,TGI,[1],28.4 µM
same,GI50,[2],7.94 µM
same,TGI,[2],74.5 µM
same,GI50,[3],13.3 µM
same,TGI,[3],53.6 µM
same,GI50,[4],3 µM
same,TGI,[4],> 100 µM
same,GI50,[5],6.27 µM
same,TGI,[5],26.8 µM
same,GI50,[6],15.4 µM
same,TGI,[6],33.3 µM
same,GI50,[7],5.14 µM
same,TGI,[7],21.7 µM
same,GI50,[8],7.19 µM
same,TGI,[8],82.2 µM
same,GI50,[9],3.25 µM
same,TGI,[9],70.6 µM
same,GI50,[10],6.71 µM
same,TGI,[10],> 100 µM
same,GI50,[11],16.5 µM
same,TGI,[11],68 µM
same,GI50,[12],2.28 µM
same,TGI,[12],5.85 µM
same,GI50,[13],8.76 µM
same,TGI,[13],> 100 µM
same,GI50,[14],15.4 µM
same,TGI,[14],> 100 µM
same,GI50,[15],19.1 µM
same,TGI,[15],> 100 µM
same,GI50,[16],20.5 µM
same,TGI,[16],73.4 µM
same,GI50,[17],45.8 µM
same,TGI,[17],> 100 µM
same,GI50,[18],25.8 µM
same,TGI,[18],> 100 µM
same,GI50,[19],18.2 µM
same,TGI,[19],> 100 µM
same,GI50,[20],8.15 µM
same,TGI,[20],37.5 µM
same,GI50,[21],3.57 µM
same,TGI,[21],> 100 µM
same,GI50,[22],12.3 µM
same,TGI,[22],31.3 µM
same,GI50,[23],19.3 µM
same,TGI,[23],> 100 µM
same,GI50,[24],9.58 µM
same,TGI,[24],30.7 µM
same,GI50,[25],5.22 µM
same,TGI,[25],19.6 µM
same,GI50,[26],8.83 µM
same,TGI,[26],67.4 µM
same,GI50,[27],10.1 µM
same,TGI,[27],42.8 µM
same,GI50,[28],8.61 µM
same,TGI,[28],44.3 µM
same,GI50,[29],12.1 µM
same,TGI,[29],42.8 µM
same,GI50,[30],7.24 µM
same,TGI,[30],89.5 µM
same,GI50,[31],4.64 µM
same,TGI,[31],31.8 µM
same,GI50,[32],13.8 µM
same,TGI,[32],36.9 µM
same,GI50,[33],4.2 µM
same,TGI,[33],44.1 µM
same,GI50,[34],13.9 µM
same,TGI,[34],> 100 µM
same,GI50,[35],41.7 µM
same,TGI,[35],> 100 µM
same,GI50,[36],3.32 µM
same,TGI,[36],28.8 µM
same,GI50,[37],5.24 µM
same,TGI,[37],18.7 µM
same,GI50,[38],2.8 µM
same,TGI,[38],27.7 µM
same,GI50,[39],14.7 µM
same,TGI,[39],54.3 µM
same,GI50,[40],6.43 µM
same,TGI,[40],> 100 µM
same,GI50,[41],2.36 µM
same,TGI,[41],5.75 µM
same,GI50,[42],4.2 µM
same,TGI,[42],> 100 µM
same,GI50,[43],4.57 µM
same,TGI,[43],57.3 µM
same,GI50,[44],41.8 µM
same,TGI,[44],> 100 µM
same,GI50,[45],4.73 µM
same,TGI,[45],16.8 µM
same,GI50,[46],3.57 µM
same,TGI,[46],20.2 µM
same,GI50,[47],13 µM
same,TGI,[47],> 100 µM
same,GI50,[48],3.92 µM
same,TGI,[48],> 100 µM
same,GI50,[49],5.97 µM
same,TGI,[49],27.5 µM
same,GI50,[50],8.86 µM
same,TGI,[50],> 100 µM
same,GI50,[51],3.89 µM
same,TGI,[51],20.3 µM
same,GI50,[52],7.64 µM
same,TGI,[52],20.1 µM
same,GI50,[53],9.76 µM
same,TGI,[53],53.2 µM
same,GI50,[54],48.9 µM
same,TGI,[54],> 100 µM
same,GI50,[55],32.2 µM
same,TGI,[55],> 100 µM
same,GI50,[56],11.1 µM
same,TGI,[56],27.3 µM
same,GI50,[57],1.84 µM
same,TGI,[57],3.51 µM
same,GI50,[58],5.52 µM
same,TGI,[58],27.7 µM
Oc1ccc(F)c(Nc2nc(SCCN3CCOCC3)nc3c2cnn3CC(Cl)c2ccc(Br)cc2)c1 (configuration not stated),GI50,[1],6.74 µM
same,TGI,[1],24.3 µM
same,GI50,[2],6.92 µM
same,TGI,[2],> 100 µM
same,GI50,[3],5.02 µM
same,TGI,[3],75.2 µM
same,GI50,[4],4.31 µM
same,TGI,[4],25.7 µM
same,GI50,[5],7.46 µM
same,TGI,[5],22.7 µM
same,GI50,[6],2.86 µM
same,TGI,[6],11.5 µM
same,GI50,[7],4.05 µM
same,TGI,[7],15.7 µM
same,GI50,[8],4.27 µM
same,TGI,[8],56.5 µM
same,GI50,[9],1.61 µM
same,TGI,[9],> 100 µM
same,GI50,[10],4.44 µM
same,TGI,[10],> 100 µM
same,GI50,[11],6.62 µM
same,TGI,[11],39.5 µM
same,GI50,[12],3.29 µM
same,TGI,[12],16.2 µM
same,GI50,[13],5.48 µM
same,TGI,[13],23 µM
same,GI50,[14],3.23 µM
same,TGI,[14],22.3 µM
same,GI50,[15],3.42 µM
same,TGI,[15],33.6 µM
same,GI50,[16],3.64 µM
same,TGI,[16],15.4 µM
same,GI50,[17],4.06 µM
same,TGI,[17],> 100 µM
same,GI50,[18],8.03 µM
same,TGI,[18],> 100 µM
same,GI50,[19],21.1 µM
same,TGI,[19],62.5 µM
same,GI50,[20],3.33 µM
same,TGI,[20],12.8 µM
same,GI50,[22],4.44 µM
same,TGI,[22],24.3 µM
same,GI50,[23],5.22 µM
same,TGI,[23],> 100 µM
same,GI50,[59],1.36 µM
same,TGI,[59],4.34 µM
same,GI50,[24],3.48 µM
same,TGI,[24],45.1 µM
same,GI50,[25],3.82 µM
same,TGI,[25],43.7 µM
same,GI50,[26],10.2 µM
same,TGI,[26],22.4 µM
same,GI50,[27],3.98 µM
same,TGI,[27],15.6 µM
same,GI50,[28],2.66 µM
same,TGI,[28],11.1 µM
same,GI50,[29],4.38 µM
same,TGI,[29],65.4 µM
same,GI50,[30],2 µM
same,TGI,[30],8.19 µM
same,GI50,[31],2.44 µM
same,TGI,[31],9.54 µM
same,GI50,[32],3.7 µM
same,TGI,[32],22.7 µM
same,GI50,[33],3.15 µM
same,TGI,[33],55 µM
same,GI50,[34],6.23 µM
same,TGI,[34],> 100 µM
same,GI50,[35],17 µM
same,TGI,[35],34.7 µM
same,GI50,[36],5.19 µM
same,TGI,[36],18.5 µM
same,GI50,[37],2.8 µM
same,TGI,[37],9.68 µM
same,GI50,[38],2.83 µM
same,TGI,[38],14.6 µM
same,GI50,[39],4.18 µM
same,TGI,[39],16.4 µM
same,GI50,[40],9.49 µM
same,TGI,[40],> 100 µM
same,GI50,[41],7.38 µM
same,TGI,[41],> 100 µM
same,GI50,[42],1.69 µM
same,TGI,[42],14.5 µM
same,GI50,[43],4.53 µM
same,TGI,[43],> 100 µM
same,GI50,[44],14.5 µM
same,TGI,[44],45 µM
same,GI50,[45],2.72 µM
same,TGI,[45],20.5 µM
same,GI50,[46],2.87 µM
same,TGI,[46],40.2 µM
same,GI50,[47],8.88 µM
same,TGI,[47],> 100 µM
same,GI50,[48],3.67 µM
same,TGI,[48],54 µM
same,GI50,[49],3.35 µM
same,TGI,[49],29.1 µM
same,GI50,[50],4.51 µM
same,TGI,[50],> 100 µM
same,GI50,[51],3.37 µM
same,TGI,[51],24.9 µM
same,GI50,[52],4.33 µM
same,TGI,[52],16.3 µM
same,GI50,[53],4.6 µM
same,TGI,[53],27.9 µM
same,GI50,[54],11 µM
same,TGI,[54],84.6 µM
same,GI50,[55],5.08 µM
same,TGI,[55],39 µM
same,GI50,[56],9.02 µM
same,TGI,[56],> 100 µM
same,GI50,[57],2.56 µM
same,TGI,[57],10.5 µM
same,GI50,[58],4.74 µM
same,TGI,[58],18.1 µM
